Drawing on the NIST ThermoML archive (doi:10.1021/acs.jced.8b00298), this text covers Critical molar volume, Critical pressure and Critical temperature for 58 molecules.

± gives the expanded uncertainty stated by the source.

For this series the following is noted: Liquid.
Where [1] appears, read: Visual observation in an unstirred cell.

In the case of `C[C@@H]1CCCC[C@H]1C` (relative stereo) [trans-1,2-dimethylcyclohexane], where the note is “Visual”, the Critical molar volume is listed as 0.00044 ± 2e-05 m3/mol and the Critical pressure is recorded as 3080 ± 30 kPa. For the same molecule, the Critical temperature under setting [1] was 596.3 ± 0.3 K.

Turning to `CC(C)(C)C1CCCCC1` [1,1-dimethylethylcyclohexane], where the note is “Visual”, the Critical molar volume is recorded as 0.0005 ± 2e-05 m3/mol and the Critical pressure is 2770 ± 30 kPa. The Critical temperature under setting [1] stood at 646.9 ± 0.2 K.

As for `COCCOC` [1,2-dimethoxyethane], under “Visual”, the Critical molar volume was 0.00031 ± 2e-05 m3/mol and the Critical pressure stood at 3830 ± 40 kPa. The Critical temperature under setting [1] is listed as 535.32 ± 0.24 K.

Consider `OCC1CCC(CO)CC1` (centres undefined) [1,4-bis(hydroxymethyl)cyclohexane], for which, for the setting “Capillary flow”, the Critical pressure came to 4000 ± 240 kPa and the Critical temperature was 800.3 ± 4 K.

For the molecule `COCC(C)=O` [1-methoxy-2-propanone], for the setting “Capillary flow”, the Critical pressure is on record as 4210 ± 90 kPa and the Critical temperature was 584 ± 2 K.

`CCC(=O)OC(C)COC` (centres undefined) [1-methoxypropan-2-yl propionate]: where the note is “Capillary flow”, the Critical pressure was 2600 ± 80 kPa and the Critical temperature was 611.7 ± 2.4 K.

`C=C(C)OC(C)=O` [1-methylvinyl ethanoate]: where the note is “Capillary flow”, the Critical pressure was found to be 3630 kPa and the Critical temperature came out at 549.8 ± 2 K.

For `CC(C)C(O)C(C)(C)CO` (centres undefined) [2,2,4-trimethyl-1,3-pentanediol], where the note is “Capillary flow”, the Critical pressure was 3110 ± 140 kPa and the Critical temperature is on record as 708.2 ± 3.2 K.

Consider `C=C(C)CC(C)(C)C` [2,4,4-trimethyl-1-pentene], for which, for the setting “Capillary flow”, the Critical pressure came out at 2730 ± 120 kPa and the Critical temperature is given as 550.7 ± 4 K.

With `COCCOCCOCCOCCOC` [2,5,8,11,14-pentaoxapentadecane], where the note is “Capillary flow”, the Critical pressure came out at 1980 ± 120 kPa and the Critical temperature was 726.6 ± 4 K.

Take `COCCOCCOCCOC` [2,5,8,11-tetraoxadodecane]: for the setting “Capillary flow”, the Critical pressure is recorded as 2310 ± 60 kPa and the Critical temperature stood at 681.2 ± 2.4 K.

`COCCOCCOC` [2,5,8-trioxanonane]: where the note is “Capillary flow”, the Critical pressure was 2830 ± 120 kPa and the Critical temperature is reported as 619.7 ± 4 K.

With `CC(C)CCCC(C)CCCC(C)CCCCC(C)CCCC(C)CCCC(C)C` (centres undefined) [2,6,10,15,19,23-hexamethyltetracosane], for the setting “Capillary flow”, the Critical pressure was determined as 657 ± 67 kPa and the Critical temperature was 805 ± 20 K.

Take `CCOCCO` [2-ethoxyethan-1-ol]: under “Capillary flow”, the Critical pressure stood at 4200 ± 110 kPa and the Critical temperature turned out to be 598.9 ± 4 K.

With `C=CC(=O)OCC(CC)CCCC` (centres undefined) [2-ethylhexyl 2-propenoate], where the note is “Capillary flow”, the Critical pressure is reported as 2080 ± 140 kPa and the Critical temperature is listed as 672.5 ± 6 K.

As to `COC(C)CO` (centres undefined) [2-methoxy-1-propanol], under “Capillary flow”, the Critical pressure turned out to be 4310 ± 140 kPa and the Critical temperature turned out to be 596.6 ± 3 K.

`CC(C)C=O` [2-methylpropanal]: for the setting “Capillary flow”, the Critical pressure is reported as 4210 ± 140 kPa and the Critical temperature is on record as 519 ± 3 K.

Regarding `CC(C)C#N` [2-methylpropanenitrile], for the setting “Capillary flow”, the Critical pressure is 3672 ± 150 kPa and the Critical temperature came to 560.8 ± 2 K.

As to `Cc1cccs1` [2-methylthiophene], for the setting “Capillary flow”, the Critical pressure is on record as 4620 ± 140 kPa and the Critical temperature is 602 ± 2 K.

Consider `OCCOc1ccccc1` [2-phenoxyethanol], for which, where the note is “Capillary flow”, the Critical pressure was determined as 3860 ± 120 kPa and the Critical temperature is on record as 749.4 ± 2 K.

Turning to `O=C1CCCN1` [2-pyrrolidinone], under “Capillary flow”, the Critical pressure was 5590 ± 220 kPa and the Critical temperature is listed as 789.1 ± 3.6 K.

Take `COCCC#N` [3-methoxypropanenitrile]: for the setting “Capillary flow”, the Critical pressure is reported as 4040 ± 120 kPa and the Critical temperature is given as 650.9 ± 2.4 K.

For the molecule `COC(C)OC` [3-methyl-2,4-dioxapentane], under “Capillary flow”, the Critical pressure was determined as 4300 ± 260 kPa and the Critical temperature is 511.6 ± 5.6 K.

In the case of `Cc1ccsc1` [3-methylthiophene], under “Capillary flow”, the Critical pressure is listed as 4620 ± 140 kPa and the Critical temperature was determined as 607.3 ± 3 K.

As for `Cc1ccc(C=O)cc1` [4-methylbenzaldehyde], where the note is “Capillary flow”, the Critical pressure is reported as 3920 ± 90 kPa and the Critical temperature amounted to 715.8 ± 4 K.

Turning to `CC(C)(C)c1ccccc1` [(1,1-dimethylethyl)benzene], for the setting “Visual”, the Critical molar volume was found to be 0.00048 ± 2e-05 m3/mol and the Critical pressure worked out at 2900 ± 30 kPa. Under setting [1], the Critical temperature worked out at 646.9 ± 0.2 K.

On to `CC(C)C1CCCCC1` [(1-methylethyl)cyclohexane], for which, for the setting “Visual”, the Critical molar volume is listed as 0.00048 ± 2e-05 m3/mol and the Critical pressure is reported as 2940 ± 30 kPa. Moreover, under setting [1], the Critical temperature was determined as 635.3 ± 0.2 K.

For the molecule `CCC(C)c1ccccc1` (centres undefined) [(1-methylpropyl)benzene], for the setting “Visual”, the Critical molar volume was 0.00048 ± 2e-05 m3/mol and the Critical pressure is listed as 3030 ± 30 kPa. The Critical temperature under setting [1] came to 653 ± 0.2 K.

`CCN(CC)CCO` [(diethylamino)ethanol]: for the setting “Capillary flow”, the Critical pressure came out at 3247 ± 130 kPa and the Critical temperature came out at 625.9 ± 4 K.

In the case of `CC(=O)N(C)C` [N,N-dimethylethanamide], where the note is “Capillary flow”, the Critical pressure is reported as 4260 ± 120 kPa and the Critical temperature came to 660.2 ± 2.6 K.

For the molecule `OCCN1CCNCC1` [N-(2-hydroxyethyl)piperazine], where the note is “Capillary flow”, the Critical pressure is given as 3980 ± 480 kPa and the Critical temperature is recorded as 760 ± 12 K.

Regarding `CNC(C)=O` [N-methylacetamide], where the note is “Capillary flow”, the Critical pressure amounted to 5090 ± 200 kPa and the Critical temperature was found to be 707.4 ± 2 K.

In the case of `CNC=O` [N-methylformamide], under “Capillary flow”, the Critical pressure is given as 6080 ± 260 kPa and the Critical temperature is 715.6 ± 4 K.

For the molecule `CN1CCCCC1` [N-methylpiperidine], under “Capillary flow”, the Critical pressure was 3660 ± 160 kPa and the Critical temperature is on record as 581.5 ± 3.6 K.

With `Cn1cccc1` [N-methylpyrrole], under “Capillary flow”, the Critical pressure is 4210 ± 140 kPa and the Critical temperature was found to be 587.4 ± 3 K.

Take `CN1CCCC1` [N-methylpyrrolidine]: for the setting “Visual”, the Critical molar volume turned out to be 0.0003 ± 2e-05 m3/mol and the Critical pressure was determined as 4000 ± 40 kPa. In addition, the Critical temperature under setting [1] is given as 548.62 ± 0.24 K.

Consider `Sc1ccccc1` [benzenethiol], for which, for the setting “Capillary flow”, the Critical pressure was 4650 ± 180 kPa and the Critical temperature was determined as 689.2 ± 4 K.

Turning to `C=C(C)C(=O)OCCCC` [butyl 2-methyl-2-propenoate], for the setting “Capillary flow”, the Critical pressure stood at 2520 ± 120 kPa and the Critical temperature came out at 615.8 ± 4 K.

For `CCCCc1ccccc1` [butylbenzene], where the note is “Visual”, the Critical molar volume is 0.0005 ± 2e-05 m3/mol and the Critical pressure amounted to 2890 ± 30 kPa. In addition, the Critical temperature under setting [1] is 660.3 ± 0.2 K.

As to `CCCCC1CCCCC1` [butylcyclohexane], under “Visual”, the Critical molar volume is listed as 0.00056 ± 2e-05 m3/mol and the Critical pressure was 2510 ± 30 kPa. Also, the Critical temperature under setting [1] amounted to 649.3 ± 0.2 K.

Consider `S=C=S` [carbon disulfide], for which, for the setting “Visual”, the Critical molar volume turned out to be 0.000176 ± 9e-06 m3/mol and the Critical pressure worked out at 7330 ± 60 kPa. The Critical temperature under setting [1] was 552.5 ± 0.2 K.

For `C[C@@H]1CCCC[C@@H]1C` [cis-1,2-dimethylcyclohexane], for the setting “Visual”, the Critical molar volume came out at 0.00041 ± 2e-05 m3/mol and the Critical pressure worked out at 3350 ± 30 kPa. For the same molecule, the Critical temperature under setting [1] is 607.29 ± 0.24 K.

For `C[C@@H]1CCC[C@H](C)C1` [cis-1,3-dimethylcyclohexane], under “Visual”, the Critical molar volume stood at 0.00043 ± 2e-05 m3/mol and the Critical pressure is 3040 ± 30 kPa. Also, the Critical temperature under setting [1] stood at 586.1 ± 0.2 K.

In the case of `SC1CCCCC1` [cyclohexanethiol], for the setting “Capillary flow”, the Critical pressure is on record as 3970 ± 160 kPa and the Critical temperature came out at 669.6 ± 4 K.

Regarding `CCOC(=O)OCC` [diethyl carbonate], under “Capillary flow”, the Critical pressure is given as 3080 ± 120 kPa and the Critical temperature was 578.2 ± 3 K.

With `CCCCCCOCCCCCC` [dihexyl ether], under “Capillary flow”, the Critical pressure was 1763 ± 110 kPa and the Critical temperature is reported as 663 ± 3 K.

As for `COCOC` [dimethoxymethane], for the setting “Capillary flow”, the Critical pressure was 4550 ± 280 kPa and the Critical temperature turned out to be 488.9 ± 3.2 K.

Consider `COC(=O)c1ccc(C(=O)OC)cc1` [dimethyl 1,4-benzenedicarboxylate], for which, where the note is “Capillary flow”, the Critical pressure turned out to be 2760 ± 400 kPa and the Critical temperature was found to be 779 ± 20 K.

On to `COC(=O)OC` [dimethyl carbonate], for which, for the setting “Capillary flow”, the Critical pressure is 4450 ± 130 kPa and the Critical temperature was 556.3 ± 3 K.

Turning to `CN(C)C=O` [dimethylformamide], under “Capillary flow”, the Critical pressure was 4720 ± 140 kPa and the Critical temperature is reported as 650.6 ± 3 K.

Regarding `CCCCCCCCOCCCCCCCC` [dioctyl ether], where the note is “Capillary flow”, the Critical pressure is listed as 1446 ± 85 kPa and the Critical temperature was determined as 727 ± 4 K.

Turning to `c1ccc(Cc2ccccc2)cc1` [diphenylmethane], where the note is “Capillary flow”, the Critical pressure is 2920 ± 60 kPa and the Critical temperature is 770 ± 2 K.

Take `C=C(C)C(=O)OCC` [ethyl 2-methylpropenoate]: where the note is “Capillary flow”, the Critical pressure is given as 3170 ± 120 kPa and the Critical temperature is 572 ± 3 K.

`C=CC(=O)OCC` [ethyl propenoate]: where the note is “Capillary flow”, the Critical pressure stood at 3710 ± 100 kPa and the Critical temperature is reported as 555.2 ± 2 K.

With `CCC1CCCCC1` [ethylcyclohexane], for the setting “Visual”, the Critical molar volume amounted to 0.00043 ± 2e-05 m3/mol and the Critical pressure is 3110 ± 30 kPa. In addition, the Critical temperature under setting [1] is listed as 605.9 ± 0.2 K.

Turning to `O=C1OCCO1` [ethylene carbonate], under “Capillary flow”, the Critical pressure is 5280 ± 800 kPa and the Critical temperature was 786 ± 10 K.

On to `CC(=O)OCCOC(C)=O` [ethylene diacetate], for which, for the setting “Capillary flow”, the Critical pressure was 3080 ± 100 kPa and the Critical temperature came out at 654.9 ± 3 K.

Turning to `COC(=O)CC(C)=O` [methyl 3-oxobutanoate], for the setting “Capillary flow”, the Critical pressure is listed as 3830 ± 140 kPa and the Critical temperature came to 652.8 ± 4 K.
